Experimental data published in patent US20250313527A1, “AMPHIPHILIC LIPID INCLUDING TERTIARY AMINE N-OXIDE GROUP, LIPOSOMAL DRUG-DELIVERY SYSTEM, AND USE OF AMPHIPHILIC LIPID” (HANGZHOU TITO BIOTECHNOLOGY PARTNERSHIP ENTERPRISE (LIMITED …, priority 2022, published 2025).

Assay: Plasma clearance and tissue distribution (in vivo imaging of DiR fluorescence)
Conditions: HepG2 tumor-bearing BALB/c nude mice, intravenous injection, FIG. 12 to FIG. 13
Protocol: Female BALB/c nude mice bearing HepG2 subcutaneous tumors (about 70 mm^3) were randomly divided into three groups with 3 mice in each group, and intravenously injected with DiR, ^DiRODML, or ^DiRODEL. 24 h later, blood was collected from the orbital veins of mice. 500 μL of a blood sample was taken and tested by a small animal in vivo imaging instrument for a fluorescence intensity. Mice were dissected, and tissues such as a heart, a liver, a spleen, a lung, a kidney, an intestine, and a tumor were collected. Each tissue was detected by a small animal in vivo imaging instrument for a fluorescence intensity.

With `CCCCCCCCCCCCCCCCCCN1/C(=C/C=C/C=C/C=C/C2=[N+](CCCCCCCCCCCCCCCCCC)c3ccccc3C2(C)C)C(C)(C)c2ccccc21.[I-]` [DiR] the “DiR fluorescence signal in the blood or tissues” value was “Almost no fluorescence signal”.
